Experimental data published in PubChem BioAssay (NCI).
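Tested at 5 concentrations; 48 h exposure; 96-well plates; endpoints linearly interpolated, else capped at highest concentration. The concentration for 50% growth inhibition is given as GI50. Definition used: TGI = concentration required for complete inhibition of growth.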

Key:
Assay in all cases: inhibition of tumour cell growth, NCI panel, 48 h
SK-OV-3 ovarian = system: SK-OV-3 ovarian
SR leukemia = system: SR leukemia
SF-295 CNS = system: SF-295 CNS
TK-10 renal = system: TK-10 renal
HOP-62 NSCLC = system: HOP-62 NSCLC
UACC-257 melanoma = system: UACC-257 melanoma
K-562 leukemia = system: K-562 leukemia
RXF 393 renal = system: RXF 393 renal
NCI/ADR-RES ovarian = system: NCI/ADR-RES ovarian
PC-3 prostate = system: PC-3 prostate

SMILES	TGI (SK-OV-3 ovarian) [µM]	TGI (SR leukemia) [µM]	TGI (SF-295 CNS) [µM]	TGI (TK-10 renal) [µM]	TGI (HOP-62 NSCLC) [µM]	TGI (UACC-257 melanoma) [µM]	TGI (K-562 leukemia) [µM]	TGI (RXF 393 renal) [µM]	GI50 (NCI/ADR-RES ovarian) [µM]	TGI (NCI/ADR-RES ovarian) [µM]	GI50 (PC-3 prostate) [µM]	TGI (PC-3 prostate) [µM]	GI50 (SK-OV-3 ovarian) [nM]	GI50 (SF-295 CNS) [µM]	GI50 (TK-10 renal) [nM]	GI50 (UACC-257 melanoma) [µM]	GI50 (K-562 leukemia) [nM]	GI50 (RXF 393 renal) [µM]	GI50 (HOP-62 NSCLC) [nM]	GI50 (SR leukemia) [nM]
CCN(CC)CCC(=O)/C=C/c1ccc(C)cc1	35.1	33.3	34.6	19.3	71.1	30.6	> 100	29.2	–	–	–	–	–	–	–	–	–	–	–	–
Cc1cn2c(/C=N/N=C(N)N)c(-c3ccsc3)nc2s1	25.6	–	22.9	27.5	–	35	> 100	33.5	22.5	51.5	7.5	20.1	10600	9.98	13400	18.7	3820	17.3	–	–
COC(=O)C(=O)C(CC(=O)Nc1cccc(C(F)(F)F)c1)C(=O)OC (stereo unspecified)	> 100	–	–	> 100	> 100	–	> 100	> 100	–	–	–	–	–	–	–	–	–	–	–	–
O=C1CCC2(c3ccccc3)Nc3ccc(Cl)cc3N12 (stereo unspecified)	> 100	–	> 100	> 100	> 100	> 100	> 100	> 100	–	–	–	–	–	–	–	–	–	–	–	–
CC/C=C\C[C@H](O)C/C=C1/C(=O)C=C[C@@H]1C/C=C\CCCC(=O)NC	8.54	–	6.08	6.49	5.33	5.32	> 100	3.17	2.5	10.5	1.95	4.79	2900	2.44	2850	2.08	1700	1.67	2300	–
Cc1cc(NS(=O)(=O)c2ccc(NC(=O)COC(=O)c3cccc4c(=O)c5ccccc5[nH]c34)cc2)no1	> 100	> 100	> 100	> 100	> 100	> 100	> 100	> 100	–	–	–	–	–	–	–	–	–	–	–	–
Cc1ccc(C)c2c(N=Nc3ccccc3[N+](=O)[O-])c(O)[nH]c12	> 100	> 100	> 100	> 100	> 100	> 100	> 100	> 100	–	–	–	> 100	–	–	–	–	–	–	–	–
O=C(COc1ccc(-c2nc3cc(Cl)c(Cl)cc3[nH]2)cc1)N=Nc1c(O)[nH]c2ccccc12	9.88	31.7	9.01	> 58.5	> 40.8	–	> 100	9.77	> 100	> 100	–	–	2280	2.63	> 33100	–	675	2.71	–	803
Cc1cc(NS(=O)(=O)c2ccc(Nc3c4ccccc4nc4c(C(=O)Nc5ccc(S(=O)(=O)N=C(N)N)cc5)ccc(Cl)c34)cc2)no1	95.4	61	> 100	> 100	77.9	> 100	> 100	72.9	–	–	–	–	–	–	–	–	–	–	–	–
CC(=O)c1cccc(NC(=O)c2ccc(NC3=C(Cl)C(=O)N(Cc4ccccc4)C3=O)cc2)c1	> 100	–	47.8	–	–	72.4	> 100	> 100	30.8	> 100	15.9	36.4	> 100000	15.3	–	18.7	8370	24	–	–
Brc1ccc(C2SCc3nc4ccccc4n32)cc1 (stereo unspecified)	37.7	28.3	24.8	29.1	22.4	–	> 100	20.9	–	–	–	–	–	–	–	–	–	–	–	–
O=C(NC(=O)c1cc2cc(Br)cc(Br)c2oc1=O)Oc1ccccc1	> 100	–	> 100	> 100	> 100	> 100	> 100	83.3	–	–	–	–	–	–	–	–	–	–	–	–
Cc1ccc(S(=O)(=O)SCc2ccccc2)cc1	> 95.9	62.7	> 89.7	> 100	> 79.3	> 94.2	27.3	69.2	–	–	–	–	–	–	–	–	–	–	–	–
CN1C(=O)C(=CN(C)c2ccccc2)C(=O)N(C)C1=O	–	> 100	> 100	> 100	–	> 100	> 100	> 100	–	–	–	–	–	–	–	–	–	–	–	–
C#CC(=O)OCC#CCOC(=O)C#C	> 100	–	> 100	37.9	46.1	> 100	–	36.9	–	76.5	–	> 100	–	–	–	–	–	–	–	–
CC12CC(Sc3ccccc3N1)c1ccccc1O2 (stereo unspecified)	58.4	58	29.8	51.4	38.4	27.8	40.2	30.2	–	–	–	–	–	–	–	–	–	–	–	–
O=C(Sc1sc(=S)sc1SC(=O)c1ccccc1)c1ccccc1	41.4	–	> 100	> 100	72.4	> 100	> 100	> 100	–	–	–	–	–	–	–	–	–	–	–	–
Cc1ccc(C(=O)N=Nc2c(O)[nH]c3ccc(Cl)cc23)cc1	–	> 50	> 50	> 50	–	> 50	> 50	> 50	> 50	> 50	25.9	> 50	–	44.5	43200	> 50	16200	13.7	–	> 50000
CCCCN1CCN(c2ccc3nc(-c4ccc5nc(-c6ccc(OCC)c(OCC)c6)[nH]c5c4)[nH]c3c2)CC1	3.27	1.19	–	5.17	–	10.5	2.27	–	> 100	> 100	1.08	2.44	1330	–	1660	1.21	529	–	–	312
COc1ccc(C#CC2=C(c3cc(OC)c(OC)c(OC)c3)C(=O)OC2)cc1	–	> 50	43.5	> 50	–	> 50	> 50	26.7	5.82	27.9	2.95	> 50	–	1.75	1770	13	2110	6.77	–	2090
Cc1cc2c(=O)cc(-c3ccc(F)cc3)oc2c(C(=O)O)c1C	> 100	–	> 100	> 100	–	> 100	> 100	> 100	–	–	–	–	–	–	–	–	–	–	–	–
